Experimental data taken from patent US11845752B2, “Substituted imidazo[1,5-a]pyrazines for the treatment of hepatitis B” (ALIGOS THERAPEUTICS, INC., priority 2020, dated 2023).

System: HBV
Experiment: HBV-DNA antiviral assay using HepG2.117 cells (intracellular HBV DNA by qPCR)
Assay type: cell-based, HBV genotype D
Conditions: HBV DNA inhibition, 3 days incubation, read-out: EC50
Method in brief: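 Read-outs: cell-lysate HBV DNA copies by qPCR (interpolated from gBlock standard) and parallel cellular ATP luminescence for CC50, both normalised to 2% DMSO controls and fitted by non-linear regression. HepG2.117 Tet-off genotype D HBV cells, induced by doxycycline removal, exposed 3 days to 4-fold serial dilutions.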

Compound	EC50 [nM]
CC1Cn2c(c(C(=O)NCc3ccccc3-c3cn(C)cn3)n(-c3ccc(OC4CC4)cc3)c2=O)CN1C(=O)c1ccc(Br)c(Cl)c1 (single isomer, unassigned) [Compound 18b, 7-(4-bromo-3-chloro-benzoyl)-2-[4-(cyclopropoxy)phenyl]-6-methyl-N-[[2-(1-methylimidazol-4-yl)phenyl]methyl]-3-oxo-6,8-dihydro-5H-imidazo[1,5-a]pyrazine-1-carboxamide]	< 50
CC1Cn2c(c(C(=O)NCc3ccccc3-c3ncccn3)n(-c3ccc4c(cnn4CC(F)(F)F)c3)c2=O)CN1C(=O)c1ccc(Br)c(C(F)(F)F)c1 (single isomer, unassigned) [Compound 100b]	< 50
CC1Cn2c(c(C(=O)NCc3ccccc3-c3ncccn3)n(-c3ccc4c(cnn4C4CNC4)c3)c2=O)CN1C(=O)c1ccc(Br)c(C(F)(F)F)c1 (single isomer, unassigned) [Compound 109b]	500 to 5000
Cc1nnc(-c2cccc(F)c2CNC(=O)c2c3n(c(=O)n2-c2ccc(OC4CC4)cc2)CC(C)N(C(=O)c2ccc(Br)c(Cl)c2)C3)o1 (single isomer, unassigned) [Compound 45b]	50 to 500
CC1Cn2c(c(C(=O)NCc3ccccc3-c3nccc(C(F)(F)F)n3)n(-c3ccc(N4CC5(CN(C)C5)C4)cc3)c2=O)CN1C(=O)c1ccc(Br)c(C(F)(F)F)c1 (single isomer, unassigned) [Compound 98a]	50 to 500
Cc1nnc(-c2ccccc2CNC(=O)c2c3n(c(=O)n2-c2ccc(OC4CC4)cc2)CC(C)N(C(=O)c2ccc(Br)c(Cl)c2)C3)o1 (single isomer, unassigned) [Compound 1b, (6R*)-7-(4-bromo-3-chlorobenzoyl)-2-(4-cyclopropoxyphenyl)-6-methyl-N-(2-(5-methyl-1,3,4-oxadiazol-2-yl)benzyl)-3-oxo-2,3,5,6,7,8-hexahydroimidazo[1,5-a]pyrazine-1-carboxamide]	< 50
Cc1nnc(-c2ccccc2CNC(=O)c2c3n(c(=O)n2-c2ccc4oc(C)nc4c2)CC(C)N(C(=O)c2ccc(Br)c(C(F)(F)F)c2)C3)o1 (single isomer, unassigned) [Compound 54b]	50 to 500
CC1Cn2c(c(C(=O)NCc3ccccc3-c3ccccn3)n(-c3ccc(N4CC5(CN(C)C5)C4)cc3)c2=O)CN1C(=O)c1ccc(Br)c(C(F)(F)F)c1 (single isomer, unassigned) [Compound 77b]	50 to 500
CC1Cn2c(c(C(=O)NCc3ccccc3-c3nccc(N)n3)n(-c3ccc(OC4CC4)cc3)c2=O)CN1C(=O)c1ccc(Br)c(Cl)c1 (single isomer, unassigned) [Compound 30b]	< 50

Same assay, conditions: Hepatitis B virus, HepG2.117, 72 h, HBV DNA inhibition, 3 days incubation, read-out: EC50

Compound	EC50 [nM]
C[C@@H]1Cn2c(c(C(=O)NCc3c(F)cccc3-c3ccccn3)n(-c3ccc(OC4CC4)cc3)c2=O)CN1C(=O)c1ccc(Br)c(C(F)(F)F)c1 (racemic) [Compound 41a, rac-(6R)-7-[4-bromo-3-(trifluoromethyl)benzoyl]-2-[4-(cyclopropoxy)phenyl]-N-[[2-fluoro-6-(2-pyridyl)phenyl]methyl]-6-methyl-3-oxo-6,8-dihydro-5H-imidazo[1,5-a]pyrazine-1-carboxamide]	< 50
CC(C)(O)COc1ccc(-n2c(C(=O)NCc3ccccc3)c3n(c2=O)CCN(C(=O)c2ccc(Br)c(Cl)c2)C3)cc1 [Compound 114, N-benzyl-7-(4-bromo-3-chloro-benzoyl)-2-[4-(2-hydroxy-2-methyl-propoxy)phenyl]-3-oxo-6,8-dihydro-5H-imidazo[1,5-a]pyrazine-1-carboxamide]	50 to 500
CC1Cn2c(c(C(=O)NCc3ccccc3-c3ccncn3)n(-c3ccc(N4CC5(CCN5C)C4)cc3)c2=O)CN1C(=O)c1ccc(Br)c(C(F)(F)F)c1 (single isomer, unassigned) [Compound 84a]	50 to 500
Cc1nc2cc(-n3c(C(=O)NCc4ccccc4-c4ccncn4)c4n(c3=O)CC(C)N(C(=O)c3ccc(Br)c(Cl)c3)C4)ccc2o1 (single isomer, unassigned) [Compound 46a]	50 to 500
C[C@H](O)COc1ccc(-n2c(C(=O)NCc3ccccc3-c3ccccn3)c3n(c2=O)C[C@H](C)N(C(=O)c2ccc(Br)c(C(F)(F)F)c2)C3)cc1 (mixture of isomers) [Compound 61b, (6SR)-7-[4-bromo-3-(trifluoromethyl)benzoyl]-2-[4-[(2S)-2-hydroxypropoxy]phenyl]-6-methyl-3-oxo-N-[[2-(2-pyridyl)phenyl]methyl]-6,8-dihydro-5H-imidazo[1,5-a]pyrazine-1-carboxamide]	< 50
CC1Cn2c(c(C(=O)NCc3ccccc3-c3ccccn3)n(-c3ccc(OC[C@@H](C)O)cc3)c2=O)CN1C(=O)c1ccc(Br)c(C(F)(F)F)c1 (single isomer, unassigned) [Compound 60a]	50 to 500
CC1Cn2c(c(C(=O)NCc3ccccc3-c3ccncn3)n(-c3ccc(OC4CC4)cc3)c2=O)CN1C(=O)c1ccc(Br)c(C(F)F)c1 (single isomer, unassigned) [Compound 16a, 7-[4-bromo-3-(difluoromethyl)benzoyl]-2-[4-(cyclopropoxy)phenyl]-6-methyl-3-oxo-N-[(2-pyrimidin-4-ylphenyl)methyl]-6,8-dihydro-5H-imidazo[1,5-a]pyrazine-1-carboxamide]	50 to 500
O=C(NCc1ccccc1)c1c2n(c(=O)n1-c1ccc(N3CCN(CC(F)(F)F)CC3)cc1)CCN(C(=O)c1ccc(Br)c(Cl)c1)C2 [Compound 122, N-benzyl-7-(4-bromo-3-chloro-benzoyl)-3-oxo-2-[4-[4-(2,2,2-trifluoroethyl)piperazin-1-yl]phenyl]-6,8-dihydro-5H-imidazo[1,5-a]pyrazine-1-carboxamide]	50 to 500
CN[C@H](C)COc1ccc(-n2c(C(=O)NCc3ccccc3-c3ncccn3)c3n(c2=O)C[C@@H](C)N(C(=O)c2ccc(Br)c(C(F)(F)F)c2)C3)cc1 (single isomer, unassigned) [Compound 95a]	50 to 500
O=C(NCc1ccccc1-c1ncccn1)c1c2n(c(=O)n1-c1ccc(OC3CC3)cc1)CC(CN1CCOCC1)N(C(=O)c1ccc(Br)c(C(F)(F)F)c1)C2 (single isomer, unassigned) [Compound 132a]	500 to 5000
CC1(O)CN(c2ccc(-n3c(C(=O)NCc4ccccc4)c4n(c3=O)CCN(C(=O)c3ccc(Br)c(Cl)c3)C4)cc2)C1 [Compound 117, N-benzyl-7-(4-bromo-3-chloro-benzoyl)-2-[4-(3-hydroxy-3-methyl-azetidin-1-yl)phenyl]-3-oxo-6,8-dihydro-5H-imidazo[1,5-a]pyrazine-1-carboxamide]	50 to 500
CNc1ccnc(-c2ccccc2CNC(=O)c2c3n(c(=O)n2-c2ccc(OC4CC4)cc2)CC(C)N(C(=O)c2ccc(Br)c(Cl)c2)C3)n1 (single isomer, unassigned) [Compound 26a]	< 50
CC1Cn2c(c(C(=O)NCc3ccccc3-c3ncccn3)n(-c3ccc4oncc4c3)c2=O)CN1C(=O)c1ccc(Br)c(C(F)(F)F)c1 (single isomer, unassigned) [Compound 108a]	500 to 5000
C[C@H]1Cn2c(c(C(=O)NCc3ccccc3-c3ccccn3)n(-c3ccc(OC[C@H](O)C(F)(F)F)cc3)c2=O)CN1C(=O)c1ccc(Br)c(C(F)(F)F)c1 (mixture of isomers) [Compound 69b, (6SR)-7-[4-bromo-3-(trifluoromethyl)benzoyl]-6-methyl-3-oxo-N-[[2-(2-pyridyl)phenyl]methyl]-2-[4-[(2S)-3,3,3-trifluoro-2-hydroxy-propoxy]phenyl]-6,8-dihydro-5H-imidazo[1,5-a]pyrazine-1-carboxamide]	50 to 500
CC1Cn2c(c(C(=O)NCc3ccccc3-c3ccncn3)n(-c3ccc(OCC4(O)CC4)cc3)c2=O)CN1C(=O)c1ccc(Br)c(C(F)(F)F)c1 (single isomer, unassigned) [Compound 74b]	< 50
C[C@H](COc1ccc(-n2c(C(=O)NCc3ccccc3-c3ncccn3)c3n(c2=O)C[C@H](C)N(C(=O)c2ccc(Br)c(C(F)(F)F)c2)C3)cc1)N1CCOCC1 (racemic) [Compound 96b, rac-(6S)-7-[4-bromo-3-(trifluoromethyl)benzoyl]-6-methyl-2-[4-(2-morpholinopropoxy)phenyl]-3-oxo-N-[(2-pyrimidin-2-ylphenyl)methyl]-6,8-dihydro-5H-imidazo[1,5-a]pyrazine-1-carboxamide]	< 50
C[C@H](COc1ccc(-n2c(C(=O)NCc3ccccc3-c3ncccn3)c3n(c2=O)C[C@H](C)N(C(=O)c2ccc(Br)c(C(F)(F)F)c2)C3)cc1)N(C)C (single isomer, unassigned) [Compound 97b]	< 50
CC1Cn2c(c(C(=O)NCc3ccccc3-c3cccnn3)n(-c3ccc(OC[C@H](C)O)cc3)c2=O)CN1C(=O)c1ccc(Br)c(C(F)(F)F)c1 (single isomer, unassigned) [Compound 57a]	50 to 500
C[C@@H]1Cn2c(c(C(=O)NCc3ccccc3-c3ccncn3)n(-c3ccc(OCC4(O)CC4)cc3)c2=O)CN1C(=O)c1ccc(Br)c(C(F)(F)F)c1 (racemic) [Compound 74a, rac-(6R)-7-[4-bromo-3-(trifluoromethyl)benzoyl]-2-[4-[(1-hydroxycyclopropyl)methoxy]phenyl]-6-methyl-3-oxo-N-[(2-pyrimidin-4-ylphenyl)methyl]-6,8-dihydro-SH-imidazo[1,5-a]pyrazine-1-carboxamide]	50 to 500
CC1Cn2c(c(C(=O)NCc3ccccc3-c3ccncn3)n(-c3ccc(N4CCC5(CN(C)C5)C4)cc3)c2=O)CN1C(=O)c1ccc(Br)c(C(F)(F)F)c1 (single isomer, unassigned) [Compound 88a]	< 50
CC1Cn2c(c(C(=O)NCc3ccccc3-c3ccncn3)n(-c3ccc(OC[C@@H](C)O)cc3)c2=O)CN1C(=O)c1ccc(Br)c(C(F)(F)F)c1 (stereo in doubt) [Compound 55a, (6R*)-7-[4-bromo-3-(trifluoromethyl)benzoyl]-2-{4-[(2R)-2-hydroxypropoxy]phenyl}-6-methyl-3-oxo-N-{[2-(pyrimidin-4-yl)phenyl]methyl}-5H,6H,8H-imidazo[1,5-a]pyrazine-1-carboxamide]	50 to 500
